Experimental data: the NIST ThermoML archive (doi:10.1021/je049721u)

Assay: mn = molality of the nth substance listed, in mol/kg
Conditions: 101.3 kPa, Liquid; for speed of sound: Pulse-echo method

[Co+2].[O-][Cl+3]([O-])([O-])[O-].[O-][Cl+3]([O-])([O-])[O-] [cobalt(II) perchlorate] + CN(C)C=O
Conditions	mass density, 283.15 K [kg/m3]	mass density, 293.15 K [kg/m3]	mass density, 298.15 K [kg/m3]	mass density, 303.15 K [kg/m3]	mass density, 313.15 K [kg/m3]	mass density, 323.15 K [kg/m3]	mass density, 333.15 K [kg/m3]	speed of sound, 298.15 K [m/s]
m1 = 0.02921	964.275	954.785	950.026	945.273	935.722	926.127	916.489	1459.6
m1 = 0.03591	965.673	956.19	951.432	946.682	937.135	927.546	917.907	–
m1 = 0.05081	968.79	959.315	954.565	949.82	940.29	930.711	921.09	1461.4
m1 = 0.05902	970.508	961.035	956.29	951.55	942.021	932.457	922.843	1462.1
m1 = 0.08863	976.733	967.283	962.549	957.809	948.308	938.77	929.181	1464.2
m1 = 0.1167	982.692	973.255	968.53	963.801	954.319	944.808	935.256	1466.5
m1 = 0.1455	988.838	979.414	974.697	969.98	960.52	951.034	941.509	1468.5
m1 = 0.1735	994.845	985.454	980.747	976.035	966.596	957.13	947.626	1471
m1 = 0.2007	1000.8	991.403	986.7	981.997	972.578	963.135	953.661	1472.8
m1 = 0.2305	1007.33	997.94	993.248	988.552	979.153	969.73	960.286	1475.4
m1 = 0.2574	1013.28	1003.91	999.223	994.536	985.152	975.753	966.326	1477.5
m1 = 0.284	1019.22	1009.86	1005.18	1000.5	991.143	981.766	972.371	1479.7

[Cu+2].[O-][Cl+3]([O-])([O-])[O-].[O-][Cl+3]([O-])([O-])[O-] [copper perchlorate] + CN(C)C=O
Conditions	mass density, 283.15 K [kg/m3]	mass density, 293.15 K [kg/m3]	mass density, 298.15 K [kg/m3]	mass density, 303.15 K [kg/m3]	mass density, 313.15 K [kg/m3]	mass density, 323.15 K [kg/m3]	mass density, 333.15 K [kg/m3]	speed of sound, 298.15 K [m/s]
m1 = 0.0362	965.762	956.275	951.52	946.762	937.212	927.62	917.988	1460
m1 = 0.04897	968.496	959.009	954.258	949.505	939.972	930.338	920.756	–
m1 = 0.0604	970.938	961.462	956.715	951.971	942.44	932.866	923.242	1461.7
m1 = 0.07815	974.714	965.248	960.507	955.758	946.236	936.666	927.06	1463.2
m1 = 0.106	980.752	971.295	966.549	961.812	952.315	942.78	933.198	1465.3
m1 = 0.139	987.892	978.445	973.718	968.984	959.5	949.979	940.416	1467.8
m1 = 0.1737	995.495	986.058	981.338	976.613	967.148	957.653	948.12	1470.3
m1 = 0.2084	1003.16	993.739	989.024	984.309	974.859	965.385	955.869	1473.2
m1 = 0.2431	1010.94	1001.53	996.825	992.116	982.686	973.233	963.75	1475.7
m1 = 0.2746	1018.01	1008.7	1003.95	999.2	989.83	980.454	970.858	1478.3
m1 = 0.3065	1025.38	1015.99	1011.3	1006.6	997.202	987.786	978.345	1480.8
m1 = 0.3377	1032.62	1023.24	1018.54	1013.85	1004.46	995.056	985.638	1483.8

[Mn+2].[O-][Cl+3]([O-])([O-])[O-].[O-][Cl+3]([O-])([O-])[O-] [manganese (II) perchlorate] + CN(C)C=O
Conditions	mass density, 283.15 K [kg/m3]	mass density, 293.15 K [kg/m3]	mass density, 298.15 K [kg/m3]	mass density, 303.15 K [kg/m3]	mass density, 313.15 K [kg/m3]	mass density, 323.15 K [kg/m3]	mass density, 333.15 K [kg/m3]	speed of sound, 298.15 K [m/s]
m1 = 0.04109	966.326	956.852	952.107	947.355	937.821	928.242	918.616	1460.8
m1 = 0.05823	969.773	960.312	955.574	950.83	941.313	931.759	922.147	–
m1 = 0.08396	974.96	965.52	960.793	956.059	946.568	937.04	927.465	1464.6
m1 = 0.1024	978.695	969.265	964.546	959.822	950.346	940.834	931.273	–
m1 = 0.1233	982.926	973.513	968.799	964.082	954.629	945.142	935.612	1468.2
m1 = 0.1616	990.785	981.396	976.698	971.997	962.575	953.124	943.633	1471.4
m1 = 0.2007	998.895	989.531	984.846	980.162	970.768	961.357	951.918	1475
m1 = 0.2395	1007.03	997.69	993.019	988.351	978.996	969.623	960.225	1478.3
m1 = 0.2793	1015.47	1006.16	1001.5	996.842	987.519	978.179	968.812	1481.9
m1 = 0.3166	1023.51	1014.22	1009.58	1004.94	995.645	986.342	977.019	1485.6
m1 = 0.3529	1031.38	1022.11	1017.48	1012.85	1003.59	994.313	985.025	1488.9
m1 = 0.3885	1039.21	1029.96	1025.35	1020.73	1011.5	1002.27	993.029	1492.5

[Ni+2].[O-][Cl+3]([O-])([O-])[O-].[O-][Cl+3]([O-])([O-])[O-] [nickel perchlorate] + CN(C)C=O
Conditions	mass density, 283.15 K [kg/m3]	mass density, 293.15 K [kg/m3]	mass density, 298.15 K [kg/m3]	mass density, 303.15 K [kg/m3]	mass density, 313.15 K [kg/m3]	mass density, 323.15 K [kg/m3]	mass density, 333.15 K [kg/m3]	speed of sound, 298.15 K [m/s]
m1 = 0.027	–	–	–	–	–	–	–	1459.6
m1 = 0.02709	963.872	954.383	949.635	944.864	935.312	925.725	916.07	–
m1 = 0.0405	966.705	957.208	952.461	947.7	938.159	928.568	918.935	1460.7
m1 = 0.054	969.549	960.073	955.329	950.578	941.045	931.471	921.848	1461.7
m1 = 0.0681	972.55	963.083	958.342	953.59	944.072	934.511	924.9	1462.9
m1 = 0.08156	975.396	965.94	961.2	956.46	946.947	937.4	927.809	1463.9
m1 = 0.1073	980.845	971.397	966.666	961.935	952.463	942.934	933.366	1466
m1 = 0.1332	986.418	976.985	972.262	967.533	958.059	948.552	939.005	1467.8
m1 = 0.1592	992.026	982.603	977.888	973.17	963.711	954.224	944.695	1470
m1 = 0.1864	997.967	988.557	983.849	979.136	969.697	960.23	950.732	1471.8
m1 = 0.2118	1003.54	994.141	989.44	984.736	975.313	965.882	956.405	1473.6
m1 = 0.2613	1014.55	1005.16	1000.47	995.784	986.394	976.988	967.56	1477.5
